The subject of this experiment is nude mice, HT29 intrarenal xenograft, tumor weight T/C. Nature of the experiment: NCI In Vivo Anticancer Drug Screen. Data for tumor model HT29;CX-1 Human Adenocarcinoma (MER+) (intrarenal inoculation) in NU/NU Swiss (nude) mice. The conditions noted are these: endpoint: mean tumor weight change, higher = larger tumour. In outline: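 Readout: treated/vehicle-control ratio of the measured endpoint (tumor size or survival) in transplanted-tumor mice.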

The mark [1] stands for this setting: dose: 8.0 mg/kg/injection, schedule: Q04DX004 (sc), vehicle: saline with Tween-80.
The mark [2] stands for this setting: dose: 16.0 mg/kg/injection, schedule: Q04DX004 (sc), vehicle: saline with Tween-80.
[3] abbreviates: dose: 25.0 mg/kg/injection, schedule: Q01DX010 (sc), vehicle: saline.
[4] abbreviates: dose: 50.0 mg/kg/injection, schedule: Q01DX010 (sc), vehicle: saline.
The mark [5] stands for this setting: dose: 200.0 mg/kg/injection, schedule: Q01DX010 (sc), vehicle: saline.
[6] abbreviates: dose: 150.0 mg/kg/injection, schedule: Q04DX004 (sc), vehicle: Klucel (hydroxypropylcellulose) (HPC).
Setting [7] is: dose: 100.0 mg/kg/injection, schedule: Q04DX004 (sc), vehicle: saline with Tween-80.
[8] abbreviates: dose: 200.0 mg/kg/injection, schedule: Q04DX004 (sc), vehicle: saline with Tween-80.
Where [9] appears, read: dose: 400.0 mg/kg/injection, schedule: Q04DX004 (sc), vehicle: saline with Tween-80.
Setting [10] is: dose: 800.0 mg/kg/injection, schedule: Q04DX004 (sc), vehicle: saline with Tween-80.
Setting [11] is: dose: 12.5 mg/kg/injection, schedule: Q01DX010 (sc), vehicle: saline.
The mark [12] stands for this setting: dose: 100.0 mg/kg/injection, schedule: Q04DX004 (sc), vehicle: Klucel (hydroxypropylcellulose) (HPC).
The mark [13] stands for this setting: dose: 200.0 mg/kg/injection, schedule: Q04DX004 (sc), vehicle: Klucel (hydroxypropylcellulose) (HPC).
The mark [14] stands for this setting: dose: 75.0 mg/kg/injection, schedule: Q04DX004 (sc), vehicle: Klucel (hydroxypropylcellulose) (HPC).
Setting [15] is: dose: 300.0 mg/kg/injection, schedule: Q04DX004 (sc), vehicle: Klucel (hydroxypropylcellulose) (HPC).
The mark [16] stands for this setting: dose: 600.0 mg/kg/injection, schedule: Q04DX004 (sc), vehicle: Klucel (hydroxypropylcellulose) (HPC).

“And” between values parts separate entries of the source, which are not always exact repeats. Identical values can stand only once. Records with an inconclusive call do not appear.

For the molecule `O=C(O)CC(NC(=O)CP(=O)(O)O)C(=O)O.[NH-]C1CCCCC1[NH-].[Pt+2]` (stereo not drawn), the T/C was 97 % of control (dose: 6.25 mg/kg/injection, schedule: Q04DX004 (sc), vehicle: dextrose); 25 % of control (dose: 12.5 mg/kg/injection, schedule: Q04DX004 (sc), vehicle: dextrose); 35 % of control (dose: 25.0 mg/kg/injection, schedule: Q04DX004 (sc), vehicle: dextrose).
On to `CC1=C[S+](c2ccccc2)c2cccc3cc4ccccc4c1c23` (stereo not drawn), for which the T/C is 45 % of control under setting [1] and 66 % of control under setting [2].
Consider `CCCCCC(=O)O[C@]1(C(C)=O)CC[C@H]2[C@@H]3CCC4=CC(=O)CC[C@]4(C)[C@H]3CC[C@@]21C`, for which the T/C was 73 % of control (dose: 225.0 mg/kg/injection, schedule: Q04DX004 (sc), vehicle: Klucel (hydroxypropylcellulose) (HPC)); 46 % of control (dose: 450.0 mg/kg/injection, schedule: Q04DX004 (sc), vehicle: Klucel (hydroxypropylcellulose) (HPC)); 58 % of control (dose: 900.0 mg/kg/injection, schedule: Q04DX004 (sc), vehicle: Klucel (hydroxypropylcellulose) (HPC)); 36 % of control (dose: 1800.0 mg/kg/injection, schedule: Q04DX004 (sc), vehicle: Klucel (hydroxypropylcellulose) (HPC)).
Take `CC1(C)OC(=O)N(CO)C1=O`: the T/C under setting [3] is 95 % of control, the T/C under setting [4] was 118 % of control and the T/C under setting [5] was 194 % of control.
With `CCC1=C[C@H]2CN(CCc3c([nH]c4ccccc34)[C@@](C(=O)OC)(c3cc4c(cc3OC)N(C)[C@H]3[C@@](O)(C(=O)NC)[C@H](OC(C)=O)[C@]5(CC)C=CCN6CC[C@]43[C@@H]65)C2)C1`, the T/C by setting is: (dose: 1.0 mg/kg/injection, schedule: Q04DX004 (sc), vehicle: water) 106 % of control; (dose: 2.0 mg/kg/injection, schedule: Q04DX004 (sc), vehicle: water) 28 % of control; (dose: 4.0 mg/kg/injection, schedule: Q04DX004 (sc), vehicle: water) -20 % of control.
Regarding `COC1C(CO)OC(n2cnc3c(=S)nc(N)[nH]c32)C1O` (stereo not drawn), under setting [6], the T/C was 116 % of control.
Turning to `COc1ccc(CC2C(=O)NC(C)C(=O)N(C)C3Cc4ccc(cc4)Oc4cc(ccc4O)CC(C(=O)NC(C)C(=O)NC(C)C(=O)N2C)N(C)C3=O)cc1` (stereo not drawn), the T/C (dose: 1.0 mg/kg/injection, schedule: Q04DX004 (sc), vehicle: saline with Tween-80) is 59 % of control; the T/C (dose: 2.0 mg/kg/injection, schedule: Q04DX004 (sc), vehicle: saline with Tween-80) was 64 % of control; the T/C (dose: 4.0 mg/kg/injection, schedule: Q04DX004 (sc), vehicle: saline with Tween-80) is 70 % of control; the T/C under setting [1] was 56 % of control and 68 % of control; the T/C under setting [2] is 70 % of control.
Turning to `CC(C)(C)N1CC1CNC(=O)C(=O)NCC1CN1C(C)(C)C` (stereo not drawn), the T/C (dose: 25.0 mg/kg/injection, schedule: Q04DX004 (sc), vehicle: saline with Tween-80) was 109 % of control.
With `CC1=C(/C=C/C(C)=C/C=C/C(C)=C/CO)C(C)(C)CCC1`, the T/C is 82 % of control under setting [7], 94 % of control under setting [8], 96 % of control under setting [9] and 121 % of control under setting [10].
Consider `NC1(C(=O)O)CCCC1`, for which the T/C was 49 % of control under setting [11] and -20 % of control under setting [5].
Take `CC(Cc1ccc(O)cc1)NCC(O)c1ccc(O)c(O)c1` (stereo not drawn): the T/C reads like this: under setting [7], 106 % of control; under setting [8], 91 % of control; under setting [9], 89 % of control; under setting [10], 80 % of control.
`COCC1OC2OC3C(COC)OC(OC4C(COC)OC(OC5C(COC)OC(OC6C(COC)OC(OC7C(COC)OC(OC8C(COC)OC(OC1C(O)C2O)C(O)C8O)C(O)C7O)C(O)C6O)C(O)C5O)C(O)C4O)C(O)C3O` (stereo not drawn) (tested in a mixture with another compound): the T/C is, setting by setting: under setting [12], 116 % of control; under setting [13], 67 % of control.
As for `Cc1cc2nc3[nH]c4ccccc4c3nc2cc1C`, the T/C reads like this: (dose: 100.0 mg/kg/injection, schedule: Q01DX010 (sc), vehicle: saline) 46 % of control; under setting [5], 98 % of control; (dose: 400.0 mg/kg/injection, schedule: Q01DX010 (sc), vehicle: saline) 82 % of control; (dose: 800.0 mg/kg/injection, schedule: Q01DX010 (sc), vehicle: saline) 84 % of control.
Regarding `Nc1ncnc2c1nnn2C1OC(CO)C(O)C1O` (stereo not drawn), the T/C under setting [14] is 41 % of control.
For the molecule `O=C(O)/C=C/C(=O)Nc1ccc(Cl)c(Cl)c1`, the T/C was 151 % of control (dose: 50.0 mg/kg/injection, schedule: Q04DX004 (sc), vehicle: Klucel (hydroxypropylcellulose) (HPC)); 102 % of control under setting [12]; 91 % of control under setting [13].
For `O=C1NC2(CCCCC2)C(=O)N1CCN(CCCl)CCCl`, the T/C is 64 % of control (dose: 6.0 mg/kg/injection, schedule: Q01DX010 (sc), vehicle: saline); 21 % of control and 23 % of control (dose: 24.0 mg/kg/injection, schedule: Q01DX010 (sc), vehicle: saline); 23 % of control (dose: 48.0 mg/kg/injection, schedule: Q01DX010 (sc), vehicle: saline).
Take `c1cc[c]([Sn]([NH]c2ncnc3[nH]cnc23)([NH]c2ncnc3[nH]cnc23)[c]2ccccc2)cc1`: the T/C is 89 % of control (dose: 150.0 mg/kg/injection, schedule: Q04DX004 (sc), vehicle: suspension in saline); 47 % of control (dose: 300.0 mg/kg/injection, schedule: Q04DX004 (sc), vehicle: suspension in saline); 28 % of control (dose: 600.0 mg/kg/injection, schedule: Q04DX004 (sc), vehicle: suspension in saline); 124 % of control (dose: 1200.0 mg/kg/injection, schedule: Q04DX004 (sc), vehicle: suspension in saline).
Consider `CC(=O)c1c(O)c(C)c(O)c2c1OC1=CC(=O)C(C(C)=O)C(=O)C12C` (stereo not drawn), for which the T/C by setting is: (dose: 300.0 mg/kg/injection, schedule: Q04DX004 (sc), vehicle: sodium bicarbonate) 104 % of control; (dose: 600.0 mg/kg/injection, schedule: Q04DX004 (sc), vehicle: sodium bicarbonate) 91 % of control; (dose: 800.0 mg/kg/injection, schedule: Q01DX010 (sc), vehicle: sodium bicarbonate) 3 % of control and 9 % of control.
Take `CCN(CC)CCNc1ccc(C)c2sc3ccc(O)cc3c(=O)c12`: the T/C is, setting by setting: (dose: 75.0 mg/kg/injection, schedule: Q04DX004 (sc), vehicle: saline with Tween-80) 53 % of control; (dose: 150.0 mg/kg/injection, schedule: Q04DX004 (sc), vehicle: saline with Tween-80) 74 % of control; (dose: 600.0 mg/kg/injection, schedule: Q04DX004 (sc), vehicle: saline with Tween-80) 103 % of control; (dose: 1200.0 mg/kg/injection, schedule: Q04DX004 (sc), vehicle: saline with Tween-80) 41 % of control; (dose: 2400.0 mg/kg/injection, schedule: Q04DX004 (sc), vehicle: saline with Tween-80) 58 % of control.
Regarding `CC(CN1CC(=O)NC(=O)C1)N1CC(=O)NC(=O)C1` (stereo not drawn), the T/C runs as follows: under setting [6], 85 % of control; under setting [15], 40 % of control; under setting [16], 46 % of control.
As for `CC(=O)Oc1ccccc1O`, the T/C is, setting by setting: (dose: 75.0 mg/kg/injection, schedule: Q04DX004 (sc), vehicle: saline + Tween-80 + alcohol) 79 % of control; (dose: 150.0 mg/kg/injection, schedule: Q04DX004 (sc), vehicle: saline + Tween-80 + alcohol) 109 % of control; (dose: 300.0 mg/kg/injection, schedule: Q04DX004 (sc), vehicle: saline + Tween-80 + alcohol) 119 % of control.
Turning to `COc1cccc2c1C(=O)c1c(O)c3c(c(O)c1C2=O)C[C@H](O)C[C@@H]3OC1CC(N)C(O)C(C)O1` (stereo partly drawn), the T/C under setting [11] is 114 % of control, the T/C under setting [3] is 41 % of control and the T/C under setting [4] is 87 % of control.
`CSc1ncc2ncn(C3OC(CO)C(O)C3O)c2n1` (stereo not drawn): the T/C is 95 % of control under setting [14], 90 % of control under setting [6], 185 % of control under setting [15] and 182 % of control under setting [16].
As to `Cc1cc(N2C(=O)CCSC2=S)ccc1Cl`, the T/C is 37 % of control under setting [14], 55 % of control under setting [6] and 30 % of control under setting [15].

The record behind these values is PubChem BioAssay AID206 (DTP/NCI, 2004).
